Measurements taken from US6455582B1, “Sulohydroxamic acids and sulohyroxamates and their use as MEK inhibitors” (Warner-Lambert Company, priority 1999, dated 2002).
pIC50: −log10 of the molar value.

Biological target: GST-MEK / GST-MAPK (p45MEK, p44MAP kinase) cascade
Assay: Cascade assay for inhibitors of the MAP kinase pathway (APK)
Type: biochemical
Method: Cascade assay for inhibitors of the MAP kinase pathway
Incorporation of ^32P into myelin basic protein (MBP) is assayed in the presence of a glutathione S-transferase fusion protein containing p44MAP kinase (GST-MAPK) and a glutathione S-transferase fusion protein containing p45MEK (GST-MEK). The assay solution contains 20 mM HEPES, pH 7.4, 10 mM MgCl2, 1 mM MnCl2, 1 mM EGTA, 50,μM [γ-^32P]ATP, 10 μg GST-MEK, 0.5 μg GST-MAPK and 40 μg MBP in a final volume of 100 μL. Reactions are stopped after 20 minutes by addition of trichloroacetic acid and filtered through a GF/C filter mat. ^32P retained on the filter mat is determined using a 120S Betaplate. Compounds are assessed at 10 μM for ability to inhibit incorporation of ^32P
To ascertain whether compounds are inhibiting GST-MEK or GST MAPK, two additional protocols are employed. In the first protocol, compounds are added to tubes containing GST-MEK, followed by addition of GST-MAPK, MBP and [γ-^32P]ATP. In the second protocol, compounds are added to tubes containing both GST-MEK and GST-MAPK, followed by MBP and [γ-^32P]ATP.
Compounds that show activity in both protocols are scored as MAPK inhibitors, while compounds showing activity in only the first protocol are scored as MEK inhibitors.

pIC50: 6.02
Structure (SMILES): O=S(=O)(NOCC1CC1)c1ccc(F)c(F)c1Nc1ccc(I)cc1Cl [PD 0297447, 2-(2-Chloro-4-iodo-phenylamino)-N-cyclopropylmethoxy-3,4-difluoro-benzenesulfonamide]
